The source of these data is patent US7381841B2, “Pentafluorosulfanylphenyl-substituted benzoylguanidines, processes for their preparation, their use as medicament or diagnostic aid, and medicament comprising them” (Sanofi-Aventis Deutschland GmbH, priority 2003, dated 2008).

One data set concerns the target T1, human NHE-1 (Homo sapiens, UniProt P19634).
T1 construct: expressed in transfected cells; host or cells: LAP-1 (parental cell line without endogenous NHE activity), G418-selected transfectants
In words: NHE-1 inhibition, FLIPR assay measuring recovery of pHi in transfected cell lines. Particulars: pHi recovery in transfected LAP-1 cell lines expressing human NHE-1, read-out: NHE1 inhibition IC50. Type of data set: cell-based. The procedure:
The NHE-1 inhibition IC50 was determined in an FLIPR assay by measurement of the recovery in pHi in transfected cell lines which express human NHE-1.
The assay was carried out in an FLIPR (fluorescent imaging plate reader) with black-walled 96-well microtiter plates with clear bases.
The growth medium for the transfected cells (Iscove+10% fetal calf serum) additionally contained G418 as selection antibiotic in order to ensure the presence of the transfected sequences.
The actual assay started with the removal of the growth medium and addition of 100 μl of loading buffer per well (5 μM BCECF-AM [2′,7′-bis(carboxyethyl)-5- (and -6-)carboxyfluorescein, acetoxymethyl ester] in 20 mM NH4Cl, 115 mM choline chloride, 1 mM MgCI2, 1 mM CaCI2, 5 mM KCI, 20 mM HEPES, 5 mM glucose; pH 7.4 [adjusted with KOH]). The cells were then incubated at 37° C. for 20 minutes. This incubation led to loading of the cells with the fluorescent dye whose fluorescence intensity depends on pHi, and with NH4Cl which makes the cells slightly alkaline. The nonfluorescent dye precursor BCECF-AM is, as ester, membrane-permeable. The actual dye BCECF is not membrane-permeable but is liberated inside cells by esterases.
After this incubation for 20 minutes, the loading buffer which contained NH4Cl and free BCECF-AM was removed by washing three times in a cell washer (Tecan Columbus) with in each case 400 μl of washing buffer (133.8 mM choline chloride, 4.7 mM KCI, 1.25 mM MgCI2, 1.25 mM CaCI2, 0.97 mM K2HPO4, 0.23 mM KH2PO4, 5 mM HEPES, 5 mM glucose; pH 7.4 [adjusted with KOH]). The residual volume remaining in the wells was 90 μl (50-125 μl possible). This washing step removed the free BCECF-AM and resulted, as a consequence of the removal of the external NH4^+ ions, in intracellular acidification (˜pHi 6.3-6.4).
This may eventually lead to cell death if it persists long enough.
It was important at this point that the washing buffer was sodium-free (<1 mM) because extracellular sodium ions would lead to an instantaneous recovery of the pHi through the activity of the cloned NHE isoforms.
It was likewise important for all the buffers used (loading buffer, washing buffer, recovery buffer) not to contain any HCO3^− ions, because the presence of bicarbonate would lead to activation of interfering bicarbonate-dependent pHi regulatory systems present in the parental LAP-1 cell line.
The microtiter plates with the acidified cells were then (up to 20 minutes after the acidification) transferred to the FLIPR. In the FLIPR, the intracellular fluorescent dye was excited by light with a wavelength of 488 nm generated by an argon laser, and the measured parameters (laser power, illumination time and aperture of the CCD camera incorporated in the FLIPR) were chosen so that the average fluorescence signal per well was between 30 000 and 35 000 relative fluorescence units.
The actual measurement in the FLIPR started with a photograph being taken by the CCD camera every two seconds under software control. After ten seconds, the recovery of the intracellular pH was initiated by adding 90 μl of recovery buffer (133.8 mM NaCl, 4.7 mM KCI, 1.25 mM MgCI2, 1.25 mM CaCI2, 0.97 mM K2HPO4, 0.23 mM KH2PO4, 10 mM HEPES, 5 mM glucose; pH 7.4 [adjusted with NaOH]) by means of the 96-well pipettor incorporated in the FLIPR.
Positive control wells (100% NHE activity) were those to which pure recovery buffer was added, while negative controls (0% NHE activity) received washing buffer. Recovery buffer with twice the concentration of test substance was added to all the other wells. Measurement in the FLIPR terminated after 60 measurements (two minutes).
The raw data are exported into the ActivityBase program. This program firstly calculates the NHE activities for each tested substance concentration and, from these, the IC50 values for the substances. […]

Data set [1] can be described thus: In vivo pharmacokinetics, profiling with the "n in one method". The note with it: iv; fasting male beagle dog, single i.v. bolus into jugular vein, about 1 mg/kg of each substance, given together, plasma; read-out: Half-life t½ (converted). As to the method:
In vivo pharmacokinetics—profiling with the “n in one method”
The exposure data and the half-life were determined as characteristic follows:
Two NHE-1 inhibiotors of the invention (example 1 and example 9) and a known NHE-1 reference subtance (cariporide)
[drawing 36] where dissolved in the slightly acidic aqueous medium (water, pH 4, adjusted with 1 M hydrochloric acid). The concentration of the aqueous formulation prepared in this way was about 1.5 mg of each substance per 1 g of solution. 10 ml of this formulation were administered once as bolus by means of a catheter into the jugular vein of a fasting male beagle dog (dose about 1 mg of each administered substance per kg of the dog's body weight). Blood samples were obtained by means of a second catheter after 5 min, 15 min, 30 min, 1 h, 2 h, 4 h, 8 h and 24 h, and heparinized plasma was prepared by centrifugation at 1000 G in appropriate plasma tubes.
The plasma samples were worked up and quantified by MS/MS after an HPLC separation. Simultaneous determination of a plurality of substances was possible with this method owing to its high specificity. The half-lives could be calculated using the WinNonlin computer program from the concentration-time plots (see FIG. 1) and compared with the half-life of the known NHE-1 reference substance. Since the various substances were measured in the same animal at the same time, the result was an accurate comparison of the compounds, and a ranking of the half-lives was possible.

The structures appear in SMILES notation.

T1 sequence (P19634 whole entry): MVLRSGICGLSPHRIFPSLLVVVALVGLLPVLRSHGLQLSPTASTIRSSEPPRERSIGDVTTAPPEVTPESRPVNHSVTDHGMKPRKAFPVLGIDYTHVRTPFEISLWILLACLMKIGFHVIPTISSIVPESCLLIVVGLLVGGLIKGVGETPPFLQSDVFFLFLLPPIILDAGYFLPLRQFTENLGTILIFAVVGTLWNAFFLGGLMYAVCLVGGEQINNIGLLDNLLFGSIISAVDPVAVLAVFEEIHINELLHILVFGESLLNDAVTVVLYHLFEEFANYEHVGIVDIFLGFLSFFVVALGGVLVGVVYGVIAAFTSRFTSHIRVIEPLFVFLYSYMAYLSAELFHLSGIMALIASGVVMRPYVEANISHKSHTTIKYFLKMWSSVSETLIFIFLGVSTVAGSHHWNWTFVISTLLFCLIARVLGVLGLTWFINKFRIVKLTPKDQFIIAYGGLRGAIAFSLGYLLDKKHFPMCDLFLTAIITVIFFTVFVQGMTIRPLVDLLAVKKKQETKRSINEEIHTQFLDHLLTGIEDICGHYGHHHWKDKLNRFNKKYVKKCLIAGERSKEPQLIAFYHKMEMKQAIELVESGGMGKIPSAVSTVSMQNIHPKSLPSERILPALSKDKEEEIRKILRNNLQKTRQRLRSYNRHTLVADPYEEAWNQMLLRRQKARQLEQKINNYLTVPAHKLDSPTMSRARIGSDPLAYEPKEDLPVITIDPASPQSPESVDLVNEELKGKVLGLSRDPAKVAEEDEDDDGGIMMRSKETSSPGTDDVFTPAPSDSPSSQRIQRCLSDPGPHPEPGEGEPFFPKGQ

Regarding `Cc1cc(-c2ccc(S(F)(F)(F)(F)F)cc2C)c(S(C)(=O)=O)cc1C(=O)N=C(N)N` [Example 11, N-(2-Methanesulfonyl-5,2′-dimethyl-4′-pentafluorosulfanylbiphenyl-4-carbonyl)guanidine], the IC50 at human NHE-1 is 81.5 nM.
As for `Cc1cc(Oc2cccc(S(F)(F)(F)(F)F)c2)c(S(C)(=O)=O)cc1C(=O)N=C(N)N` [Example 1, N-[5-Methanesulfonyl-2-methyl-4-(3-pentafluorosulfanylphenoxy)-benzoyl]guanidine], the melting point lay in the range of 166 to 168 °C. Also, the half-life in data set [1] was 20.2 h. On human NHE-1, the half-inhibitory concentration (IC50) worked out at 3.9 nM.
As for `Cc1cc(Oc2ccc(S(F)(F)(F)(F)F)cc2)c(S(C)(=O)=O)cc1C(=O)N=C(N)N` [Example 2, N-[5-Methanesulfonyl-2-methyl-4-(4-pentafluorosulfanylphenoxy)-benzoyl]guanidine], the IC50 at human NHE-1 was 1.9 nM.
`Cc1cc(Sc2ccc(S(F)(F)(F)(F)F)cc2)c(S(C)(=O)=O)cc1C(=O)N=C(N)N` [Example 3, N-[5-Methanesulfonyl-2-methyl-4-(4-pentafluorosulfanylphenylsulfanyl)benzoyl]-guanidine]: at human NHE-1, the IC50 was 4.7 nM.
The same measure, in the same setting: the figure for `Cc1cc(Nc2cccc(S(F)(F)(F)(F)F)c2)c(S(C)(=O)=O)cc1C(=O)N=C(N)N` [Example 5, N-[5-Methanesulfonyl-2-methyl-4-(3-pentafluorosulfanylphenylamino)-benzoyl]guanidine] is 6.4 nM.
Compound `Cc1cc(-c2cccc(S(F)(F)(F)(F)F)c2)c(S(C)(=O)=O)cc1C(=O)N=C(N)N` [Example 10, N-(2-Methanesulfonyl-5-methyl-3′-pentafluorosulfanylbiphenyl-4-carbonyl)guanidine] displayed a melting point of 169 to 175 °C. Further, the IC50 at human NHE-1 stood at 38.8 nM.
Take `Cc1cc(N(C)c2ccc(S(F)(F)(F)(F)F)cc2)c(S(C)(=O)=O)cc1C(=O)N=C(N)N` [Example 8, N-{5-Methanesulfonyl-2-methyl-4-[methyl-(4-pentafluorosulfanyl-phenyl)amino]benzoyl}guanidine]: the IC50 at human NHE-1 was found to be 3.7 nM.
On to `CC(C)c1ccc(C(=O)N=C(N)N)cc1S(C)(=O)=O.CS(=O)(=O)O` [cariporide, reference compound], for which, in data set [1], the half-life is 4.1 h.
On to `Cc1cc(Nc2ccc(S(F)(F)(F)(F)F)cc2)c(S(C)(=O)=O)cc1C(=O)N=C(N)N` [Example 6, N-[5-Methanesulfonyl-2-methyl-4-(4-pentafluorosulfanylphenyl-amino)benzoyl]guanidine], for which, at human NHE-1, the IC50 worked out at 27.1 nM.
`Cc1cc(-c2ccc(S(F)(F)(F)(F)F)cc2)c(S(C)(=O)=O)cc1C(=O)N=C(N)N` [Example 9, N-(2-Methanesulfonyl-5-methyl-4′-pentafluorosulfanylbiphenyl-4-carbonyl)guanidine] returned a melting point of 238 to 240 °C. Also, the half-life in data set [1] is 39.9 h. The half-inhibitory concentration (IC50) at human NHE-1 stood at 2.1 nM.
As for `Cc1cc(S(=O)(=O)c2ccc(S(F)(F)(F)(F)F)cc2)c(S(C)(=O)=O)cc1C(=O)N=C(N)N` [Example 4, N-[5-Methanesulfonyl-2-methyl-4-(4-pentafluorosulfanylphenylsulfonyl)-benzoyl]guanidine], the IC50 at human NHE-1 was found to be 4670 nM.
The same measure, in the same setting: the figure for `Cc1cc(N(C)c2cccc(S(F)(F)(F)(F)F)c2)c(S(C)(=O)=O)cc1C(=O)N=C(N)N` [Example 7, N-{5-Methanesulfonyl-2-methyl-4-[methyl-(3-pentafluorosulfanylphenyl)-amino]benzoyl}guanidine] is 14.5 nM.
